{"source": "patent US11421001B2", "about": "“Template-fixed peptidomimetics” (UNIVERSITAET ZUERICH, priority 2007, dated 2022)", "key": {"[1]": {"assay": "Cytotoxicity assay (MTT reduction)", "assay_type": "cell-based", "conditions": "human, HELA cells (Acc57), peptides at 12.5, 25 and 50 μM, trend line, read-out: Cyto-toxicity LC50/GI50 Hela cells", "description": "The cytotoxicity of the peptides to HELA cells (Acc57) and COS-7 cells (CRL-1651) was determined using the MTT reduction assay [see ref. 6 and 7, below]. Briefly the method was as follows: HELA cells and COS-7 cells were seeded at 7.0×10^3 and, respectively, 4.5×10^3 cells per well and grown in 96-well microtiter plates for 24 hours at 37° C. at 5% CO2. At this point, time zero (Tz) was determined by MTT reduction (see below). The supernatant of the remaining wells was discarded, and fresh medium and the peptides in serial dilutions of 12.5, 25 and 50 μM were pipetted into the wells. Each peptide concentration was assayed in triplicate. Incubation of the cells was continued for 48 hours at 37° C. at 5% CO2. Wells were then washed once with PBS and subsequently 100 μl MTT reagent (0.5 mg/mL in medium RPMI1640 and, respectively, DMEM) was added to the wells. This was incubated at 37° C. for 2 hours and subsequently the medium was aspirated and 100 μl isopropanol was added to each well. The absorbance at 595 nm of the solubilized product was measured (OD595peptide). For each concentration averages were calculated from triplicates. The percentage of growth was calculated as follows: (OD595peptide−OD595Tz−OD595Empty well)/(OD595Tz−OD595Empty well)×100% and was plotted for each peptide concentration. […]"}, "FIGS-Assay": {"assay": "FIGS-Assay", "assay_type": "cell-based", "conditions": "48 hours of co-cultivation; ONPG read out at 405 nm", "description": "The assay was performed according to ref. 5, below. Stock dilutions of the peptides (10 μM) were prepared by dissolving in […] at room temperature. Stock solutions were kept at +4° C., light protected. Working dilutions were prepared extemporaneously by serial dilution in Phosphate Buffered Saline (PBS) and added in a final volume of 10 μl directly to the cell cultures. After 48 hours of co-cultivation the cultures were rinsed with PBS and then exposed to glutaraldehyde/formaldehyde (0.2%/2%) in PBS for five minutes. For photometric quantification the fixed cultures were subsequently incubated with ortho-nitro-phenyl-galactopyranoside (ONPG) as a β-galactosidase substrate, which was enzymatically converted into the chromophore ortho-nitrophenol (ONP). The read out is directly obtained by measuring optical density of wells at 405 nm in an iEMS 96well-plate reader.\n‘CCR5’ cells were cultured in DMEM medium with […] glucose, 10% fetal bovine serum (FBS), supplemented with 50 U/ml Penicillin and 50 μg/ml Streptomycin (Pen/Strept.). Hut/4-3 cells were maintained in RPMI medium, 10% FBS, supplemented with Pen/Strept. and 10 mM HEPES. HELA cells and CCRF-CEM cells were maintained in RPMI1640 plus 5% FBS, Pen/Strept and 2 mM L-Glutamine. Cos-7 cells were grown in DMEM medium with […] glucose supplemented with 10% FCS, Pen/Strept. and 2 mM L-Glutamine. […]"}}, "note": "Positions of bridges follow the written chain, without caps; N, C: chain ends. Non-standard residues stand in square brackets, D forms with d. Residues, ends and D or L forms follow the SMILES beside them. Dab = NCC[C@H](N)C(=O)O", "data": [{"smiles": "C[C@@H]1NC(=O)[C@H](CO)NC(=O)[C@@H]2CSSC[C@H](NC(=O)[C@H](Cc3ccc(O)cc3)NC(=O)[C@H](CCCNC(=N)N)NC(=O)[C@H](CCN)NC(=O)[C@H]3CCCN3C1=O)C(=O)N[C@@H](Cc1ccc(O)cc1)C(=O)N[C@@H](CCC(N)=O)C(=O)N[C@@H](CCCCN)C(=O)N1CCC[C@@H]1C(=O)N1CCC[C@H]1C(=O)N[C@@H](Cc1ccc(O)cc1)C(=O)N[C@@H](Cc1c[nH]cn1)C(=O)N[C@@H](Cc1ccc(O)cc1)C(=O)N2", "note": "[Example 2] (cyclo(YHYCSA[dP][Dab]RYCYQK[dP]P); disulfide 4-11)", "values": [{"measurement": "CC50 at 48 h", "setting": "[1]", "value": 94, "unit": "µM"}, {"measurement": "IC50", "setting": "FIGS-Assay", "value": 0.0247, "unit": "µM"}]}]}
